Experimental data reported in patent US20170355705A1 (GlaxoSmithKline Intellectual Property (No.2) Limited, priority 2014, published 2017).

Target: T1, SIRT1 (Homo sapiens, UniProt Q96EB6)
T1 sequence (Q96EB6 1-747): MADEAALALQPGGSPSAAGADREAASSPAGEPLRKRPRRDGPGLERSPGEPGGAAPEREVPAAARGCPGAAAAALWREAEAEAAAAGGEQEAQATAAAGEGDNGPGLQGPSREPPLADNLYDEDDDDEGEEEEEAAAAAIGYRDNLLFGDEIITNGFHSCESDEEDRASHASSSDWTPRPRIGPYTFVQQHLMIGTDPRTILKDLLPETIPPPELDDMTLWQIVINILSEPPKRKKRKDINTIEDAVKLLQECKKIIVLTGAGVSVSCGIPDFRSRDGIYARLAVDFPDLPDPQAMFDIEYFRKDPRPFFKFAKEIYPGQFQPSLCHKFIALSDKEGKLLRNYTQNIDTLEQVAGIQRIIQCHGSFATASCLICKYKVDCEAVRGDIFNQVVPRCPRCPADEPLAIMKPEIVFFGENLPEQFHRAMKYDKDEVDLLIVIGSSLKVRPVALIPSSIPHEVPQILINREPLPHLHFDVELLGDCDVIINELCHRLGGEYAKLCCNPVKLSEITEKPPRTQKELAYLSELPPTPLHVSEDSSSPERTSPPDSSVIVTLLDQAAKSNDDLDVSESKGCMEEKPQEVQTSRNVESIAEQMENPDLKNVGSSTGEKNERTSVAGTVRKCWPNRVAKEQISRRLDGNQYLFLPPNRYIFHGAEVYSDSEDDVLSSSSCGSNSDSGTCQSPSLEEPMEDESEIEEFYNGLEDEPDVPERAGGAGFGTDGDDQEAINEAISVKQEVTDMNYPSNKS
Assay: Trp mass spectrometry assay of SIRT1 activity (EC1.5, percent maximum activation)
Format: biochemical
Conditions: Trp mass spectrometry assay; for TRP Activity (EC1.5): EC1.5 = concentration giving 150% activation of SIRT1; for TRP MAX RESP (percent maximum fold activation): percent maximum activation of SIRT1
Procedure, shortened: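 Activation values derive from mass-spectrometric measurement of NAD-dependent deacetylation product after a 25 min reaction of bacterially expressed His-tagged SIRT1 with a fluorophore-labelled Trp peptide.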

Compound	TRP Activity (EC1.5)	TRP MAX RESP (percent maximum fold activation)
CC(C)(CO)COc1cccc(NC(=O)N2c3nc(-c4cccc(C(F)(F)F)c4)c(Cl)cc3N3CC[C@H]2C3)n1 [Example 49, (4S)-8-chloro-N-(6-(3-hydroxy-2,2-dimethylpropoxy)pyridin-2-yl)-7-(3-(trifluoromethyl)phenyl)-3,4-dihydro-1,4-methanopyrido[2,3-b][1,4]diazepine-5(2H)-carboxamide]	B (EC1.5 1-25 μM)	A (Fold activation ≧150%)
O=C(Nc1ccnc(OC[C@H](O)CO)n1)N1c2nc(-c3cccc(C(F)(F)F)c3)c(Cl)cc2N2CC[C@H]1C2 [Example 50, (4S)-8-chloro-N-(2-((R)-2,3-dihydroxypropoxy)pyrimidin-4-yl)-7-(3-(trifluoromethyl)phenyl)-3,4-dihydro-1,4-methanopyrido[2,3-b][1,4]diazepine-5(2H)-carboxamide]	A (EC1.5<1 μM)	A (Fold activation ≧150%)
Cl.O=C(Nc1ccnc(OC[C@H](O)CO)n1)N1c2nc(-c3cccc(C(F)(F)F)c3)c(Cl)cc2N2CC[C@H]1C2 [Example 51, (4S)-8-chloro-N-(2-((R)-2,3-dihydroxypropoxy)pyrimidin-4-yl)-7-(3-(trifluoromethyl)phenyl)-3,4-dihydro-1,4-methanopyrido[2,3-b][1,4]diazepine-5(2H)-carboxamide Hydrochloride]	A (EC1.5<1 μM)	A (Fold activation ≧150%)
O=C(NC1CC1)N1c2nc(-c3cccc(C(F)(F)F)c3)c(Cl)cc2N2CC[C@H]1C2 [Example 52, (4S)-8-chloro-N-cyclopropyl-7-(3-(trifluoromethyl)phenyl)-3,4-dihydro-1,4-methanopyrido[2,3-b][1,4]diazepine-5(2H)-carboxamide]	A (EC1.5<1 μM)	A (Fold activation ≧150%)
Cl.O=C(NC1CC1)N1c2nc(-c3cccc(C(F)(F)F)c3)c(Cl)cc2N2CC[C@H]1C2 [Example 53, (4S)-8-chloro-N-cyclopropyl-7-(3-(trifluoromethyl)phenyl)-3,4-dihydro-1,4-methanopyrido[2,3-b][1,4]diazepine-5(2H)-carboxamide Hydrochloride]	A (EC1.5<1 μM)	A (Fold activation ≧150%)
O=C(Nc1ccnc(OC2CCOCC2)n1)N1c2nc(-c3cccc(C(F)(F)F)c3)c(Cl)cc2N2CC[C@H]1C2 [Example 55, (4S)-8-chloro-N-(2-((tetrahydro-2H-pyran-4-yl)oxy)pyrimidin-4-yl)-7-(3-(trifluoromethyl)phenyl)-3,4-dihydro-1,4-methanopyrido[2,3-b][1,4]diazepine-5(2H)-carboxamide]	B (EC1.5 1-25 μM)	A (Fold activation ≧150%)
O=C(Nc1cccc(OC[C@H](O)CO)n1)N1c2nc(-c3cccc(C(F)(F)F)c3)c(Cl)cc2N2CC[C@H]1C2 [Example 56, (4S)-8-chloro-N-(6-((R)-2,3-dihydroxypropoxy)pyridin-2-yl)-7-(3-(trifluoromethyl)phenyl)-3,4-dihydro-1,4-methanopyrido[2,3-b][1,4]diazepine-5(2H)-carboxamide]	A (EC1.5<1 μM)	A (Fold activation ≧150%)
O=C(Nc1nccc(OC[C@@H](O)CO)n1)N1c2nc(-c3cccc(C(F)(F)F)c3)c(Cl)cc2N2CC[C@H]1C2 [Example 57, (4S)-8-chloro-N-(4-((S)-2,3-dihydroxypropoxy)pyrimidin-2-yl)-7-(3-(trifluoromethyl)phenyl)-3,4-dihydro-1,4-methanopyrido[2,3-b][1,4]diazepine-5(2H)-carboxamide]	A (EC1.5<1 μM)	A (Fold activation ≧150%)
Cl.O=C(Nc1ccnc(OC[C@@H](O)CO)c1)N1c2nc(-c3cccc(C(F)(F)F)c3)c(Cl)cc2N2CC[C@H]1C2 [Example 58, (4S)-8-chloro-N-(2-((S)-2,3-dihydroxypropoxy)pyridin-4-yl)-7-(3-(trifluoromethyl)phenyl)-3,4-dihydro-1,4-methanopyrido[2,3-b][1,4]diazepine-5(2H)-carboxamide, Hydrochloride]	A (EC1.5<1 μM)	A (Fold activation ≧150%)
CC(C)(O)CCOc1cccc(NC(=O)N2c3nc(-c4cccc(C(F)(F)F)c4)c(Cl)cc3N3CC[C@H]2C3)n1 [Example 59, (4S)-8-chloro-N-(6-(3-hydroxy-3-methylbutoxy)pyridin-2-yl)-7-(3-(trifluoromethyl)phenyl)-3,4-dihydro-1,4-methanopyrido[2,3-b][1,4]diazepine-5(2H)-carboxamide]	B (EC1.5 1-25 μM)	A (Fold activation ≧150%)
Cl.O=C(Nc1ccnc(OC[C@H](O)CO)c1)N1c2nc(-c3cccc(C(F)(F)F)c3)c(Cl)cc2N2CC[C@H]1C2 [Example 60, (4S)-8-chloro-N-(2-((R)-2,3-dihydroxypropoxy)pyridin-4-yl)-7-(3-(trifluoromethyl)phenyl)-3,4-dihydro-1,4-methanopyrido[2,3-b][1,4]diazepine-5(2H)-carboxamide, Hydrochloride]	A (EC1.5<1 μM)	A (Fold activation ≧150%)
O=C(Nc1ccnc(OC[C@@H](O)CO)c1)N1c2nc(-c3cccc(C(F)(F)F)c3)c(Cl)cc2N2CC[C@H]1C2 [Example 61, (4S)-8-chloro-N-(2-((S)-2,3-dihydroxypropoxy)pyridin-4-yl)-7-(3-(trifluoromethyl)phenyl)-3,4-dihydro-1,4-methanopyrido[2,3-b][1,4]diazepine-5(2H)-carboxamide]	A (EC1.5<1 μM)	A (Fold activation ≧150%)
Cl.O=C(Nc1cncc(OC[C@H](O)CO)n1)N1c2nc(-c3cccc(C(F)(F)F)c3)c(Cl)cc2N2CC[C@H]1C2 [Example 62, (4S)-8-chloro-N-(6-((R)-2,3-dihydroxypropoxy)pyrazin-2-yl)-7-(3-(trifluoromethyl)phenyl)-3,4-dihydro-1,4-methanopyrido[2,3-b][1,4]diazepine-5(2H)-carboxamide, Hydrochloride]	A (EC1.5<1 μM)	A (Fold activation ≧150%)
O=C(Nc1cc(OC[C@@H](O)CO)ccn1)N1c2nc(-c3cccc(C(F)(F)F)c3)c(Cl)cc2N2CC[C@H]1C2 [Example 63, (4S)-8-chloro-N-(4-((S)-2,3-dihydroxypropoxy)pyridin-2-yl)-7-(3-(trifluoromethyl)phenyl)-3,4-dihydro-1,4-methanopyrido[2,3-b][1,4]diazepine-5(2H)-carboxamide]	B (EC1.5 1-25 μM)	A (Fold activation ≧150%)
